Experimental data as given in US20050234046A1 (Kalypsys, Inc., priority 2004, published 2005).

Legend:
Experiment in all cases: Transient transfection (transactivation) assay in CV-1 cells, GAL4-PPAR chimera, luciferase reporter
Type in all cases: cell-based
[1] = molecular target: T1, PPAR alpha (Homo sapiens, UniProt Q07869)
T1 construct: expressed in transfected cells; host or cells: CV-1 cells
T1 sequence (Q07869 239-466 limits assumed): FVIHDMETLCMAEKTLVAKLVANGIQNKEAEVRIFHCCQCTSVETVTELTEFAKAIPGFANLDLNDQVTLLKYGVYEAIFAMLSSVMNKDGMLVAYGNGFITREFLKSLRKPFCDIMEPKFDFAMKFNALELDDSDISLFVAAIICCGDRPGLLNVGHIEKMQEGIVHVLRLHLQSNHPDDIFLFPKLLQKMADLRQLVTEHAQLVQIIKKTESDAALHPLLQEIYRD
Summary of the method: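 EC50 and efficacy come from a luciferase read-out after 20-24 hours of compound exposure (vehicle 1% DMSO) in transiently transfected CV-1 cells. These cells express a GAL4-PPAR ligand-binding-domain chimera plus a reporter with four or five GAL4 binding sites, and are kept in phenol-red free DME with 5% delipidated calf serum.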

[2] = molecular target: T2, PPAR delta (Homo sapiens, UniProt Q03181)
T2 construct: expressed in transfected cells; host or cells: CV-1 cells
T2 sequence (Q03181 211-439 limits assumed): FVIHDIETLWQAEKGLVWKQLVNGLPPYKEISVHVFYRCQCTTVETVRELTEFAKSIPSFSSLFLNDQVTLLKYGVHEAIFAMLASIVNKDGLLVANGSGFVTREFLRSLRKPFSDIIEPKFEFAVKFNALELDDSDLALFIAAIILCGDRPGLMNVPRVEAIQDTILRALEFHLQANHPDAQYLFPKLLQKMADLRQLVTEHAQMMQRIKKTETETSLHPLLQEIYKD
Text: (§1) Compounds may be screened for functional potency in transient transfection assays in CV-1 cells or other cell types for their ability to activate the PPAR subtypes (transactivation assay). A previously established chimeric receptor system was utilized to allow comparison of the relative transcriptional activity of the receptor subtypes on the same synthetic response element and to prevent endogenous receptor activation from complicating the interpretation of results. […] The ligand binding domains for murine and human PPAR-alpha, PPAR-gamma, and PPAR-delta are each fused to the yeast transcription factor GAL4 DNA binding domain. CV-1 cells were transiently transfected with expression vectors for the respective PPAR chimera along with a reporter construct containing four or five copies of the GAL4 DNA binding site driving expression of luciferase. After 8-16 h, the cells are replated into multi-well assay plates and the media is exchanged to phenol-red free DME medium supplemented with 5% delipidated calf serum. 4 hours after replating, cells were treated with either compounds or 1% DMSO for 20-24 hours. Luciferase activity was then assayed with Britelite (Perkin Elmer) following the manufacturer's protocol and measured with either the Perkin Elmer Viewlux or Molecular Devices Acquest Xsee, for example, Kliewer, S. A., et. al. Cell 1995, 83, 813-819). Rosiglitazone is used as a positive control in the hPPAR-γ assay. Wy-14643 and GW7647 is used as a positive control in the hPPAR-α assay. GW501516 is used as the positive control in the hPPAR-δ assay.

[3] = molecular target: T3, PPAR gamma (Homo sapiens, UniProt P37231)
T3 construct: expressed in transfected cells; host or cells: CV-1 cells
T3 sequence (P37231 238-503 limits assumed): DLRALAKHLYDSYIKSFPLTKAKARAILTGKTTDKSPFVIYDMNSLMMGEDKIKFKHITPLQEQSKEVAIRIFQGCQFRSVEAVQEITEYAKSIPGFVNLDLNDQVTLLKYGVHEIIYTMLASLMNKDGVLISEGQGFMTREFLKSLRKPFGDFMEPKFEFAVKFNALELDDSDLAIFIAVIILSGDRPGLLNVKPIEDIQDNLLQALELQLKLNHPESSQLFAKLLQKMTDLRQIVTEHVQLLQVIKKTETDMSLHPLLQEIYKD
Text: as §1

| Structure (SMILES) | EC50 [1] | EC50 [2] | EC50 [3] |
| --- | --- | --- | --- |
| COc1ccc(N2CCN(S(=O)(=O)c3ccc(C)c(CC(=O)O)c3)CC2)cc1OC [Example 179, {5-[4-(3,4-Dimethoxy-phenyl)-piperazine-1-sulfonyl]-2-methyl-phenyl}-acetic acid] | > 100 µM | > 100 µM | > 100 µM |
| Cc1ccc(S(=O)(=O)N2CCN(c3ccc(F)cc3F)CC2)cc1CC(=O)O [Example 180, {5-[4-(2,4-Difluoro-phenyl)-piperazine-1-sulfonyl]-2-methyl-phenyl}-acetic acid] | > 100 µM | 5 to 100 µM | 5 to 100 µM |
| Cc1ccc(S(=O)(=O)N2CCN(c3ccccc3)CC2)cc1CC(=O)O [Example 181, [2-Methyl-5-(4-phenyl-piperazine-1-sulfonyl)-phenyl]-acetic acid] | > 100 µM | 5 to 100 µM | 5 to 100 µM |
| Cc1ccc(S(=O)(=O)N2CCN(c3ccc(C(F)(F)F)cn3)CC2)cc1CC(=O)O [Example 182, {2-Methyl-S-[4-(5-trifluoromethyl-pyridin-2-yl)-piperazine-1-sulfonyl]-phenyl}-acetic acid] | 5 to 100 µM | < 5 µM | < 5 µM |
| Cc1ccc(S(=O)(=O)N2CCN(c3ccc(C(F)(F)F)cc3)CC2)cc1CC(=O)O [Example 183, {2-Methyl-5-[4-(4-trifluoromethyl-phenyl)-piperazine-1-sulfonyl]-phenyl}-acetic acid] | 5 to 100 µM | < 5 µM | 5 to 100 µM |
| O=C(O)Cc1cccc(S(=O)(=O)N2CCC(c3ccc(Cl)cc3)CC2)c1 [Example 184, {3-[4-(4-Chloro-phenyl)-piperidine-1-sulfonyl]-phenyl}-acetic acid] | > 100 µM | 5 to 100 µM | > 100 µM |
| Cc1cc(CC(=O)O)cc(S(=O)(=O)N2CCC(c3ccc(Cl)cc3)CC2)c1 [Example 185, {3-[4-(4-Chloro-phenyl)-piperidine-1-sulfonyl]-5-methyl-phenyl}-acetic acid] | > 100 µM | 5 to 100 µM | 5 to 100 µM |
| O=C(O)CCc1cccc(S(=O)(=O)N2CCN(c3ccc(Cl)c(Cl)c3)CC2)c1 [Example 186, 3-{3-[4-(3,4-Dichloro-phenyl)-piperazine-1-sulfonyl]-phenyl}-propionic acid] | > 100 µM | < 5 µM | 5 to 100 µM |
| O=C(O)CCc1cccc(S(=O)(=O)N2CCN(c3ccc(Cl)cc3)CC2)c1 [Example 187, 3-{3-[4-(4-Chloro-phenyl)-piperazine-1-sulfonyl]-phenyl}-propionic acid] | > 100 µM | < 5 µM | 5 to 100 µM |
| O=C(O)COc1cccc(S(=O)(=O)N2CCN(c3ccc(Cl)c(Cl)c3)CC2)c1 [Example 188] | > 100 µM | 5 to 100 µM | > 100 µM |
| CC(C)(Oc1cccc(S(=O)(=O)N2CCN(c3ccc(Cl)c(Cl)c3)CC2)c1)C(=O)O [Example 189, 2-{3-[4-(3,4-Dichloro-phenyl)-piperazine-1-sulfonyl]-phenoxy}-2-methyl-propionic acid] | > 100 µM | > 100 µM | 5 to 100 µM |
| O=C(O)COc1cccc(S(=O)(=O)N2CCN(c3ccc(C(F)(F)F)cc3)CC2)c1 [Example 190, {3-[4-(4-Trifluoromethyl-phenyl)-piperazine-1-sulfonyl]-phenoxy}-acetic acid] | > 100 µM | 5 to 100 µM | > 100 µM |
| CC(C)(Oc1cccc(S(=O)(=O)N2CCN(c3ccc(C(F)(F)F)cc3)CC2)c1)C(=O)O [Example 191, 2-Methyl-2-{3-[4-(4-trifluoromethyl-phenyl)-piperazine-1-sulfonyl]-phenoxy}-propionic acid] | 5 to 100 µM | 5 to 100 µM | 5 to 100 µM |
| C[C@@H]1CN(c2ccc(OC(F)(F)F)cc2)C[C@H](C)N1S(=O)(=O)c1ccc(O)c(CCC(=O)O)c1 [Example 192, 3-{5-[2,6-Dimethyl-4-(4-trifluoromethoxy-phenyl)-piperazine-1-sulfonyl]-2-hydroxy-phenyl}-propionic acid] | > 100 µM | 5 to 100 µM | > 100 µM |
| C[C@@H]1CN(c2ccc(C(F)(F)F)cn2)C[C@H](C)N1S(=O)(=O)c1ccc(O)c(CCC(=O)O)c1 [Example 193, 3-{5-[2,6-Dimethyl-4-(5-trifluoromethyl-pyridin-2-yl)-piperazine-1-sulfonyl]-2-hydroxy-phenyl}-propionic acid] | > 100 µM | 5 to 100 µM | > 100 µM |
| COc1ccc(S(=O)(=O)N2[C@H](C)CN(c3ccc(C(F)(F)F)cn3)C[C@@H]2C)cc1CCC(=O)O [Example 194, 3-{5-[2,6-Dimethyl-4-(5-trifluoromethyl-pyridin-2-yl)-piperazine-1-sulfonyl]-2-methoxy-phenyl}-propionic acid] | > 100 µM | < 5 µM | > 100 µM |
| Cc1cc(CC(=O)O)cc(S(=O)(=O)N2[C@@H](C)CN(c3ccc(C(F)(F)F)cn3)C[C@@H]2C)c1 [Example 195, {3-[2,6(S,S)-Dimethyl-4-(5-trifluoromethyl-pyridin-2-yl)-piperazine-1-sulfonyl]-5-methyl-phenyl}-acetic acid] | 5 to 100 µM | < 5 µM | 5 to 100 µM |
| Cc1cc(S(=O)(=O)N2CCN(c3ccc(C(F)(F)F)cn3)CC2)cc(CC(=O)O)c1Br [Example 196, {2-Bromo-3-methyl-5-[4-(5-trifluoromethyl-pyridin-2-yl)-piperazine-1-sulfonyl]-phenyl}-acetic acid] | 5 to 100 µM | < 5 µM | < 5 µM |
| Cc1cc(S(=O)(=O)N2[C@H](C)CN(c3ccc(C(F)(F)F)cn3)C[C@@H]2C)cc(CC(=O)O)c1Br [Example 197, {2-Bromo-5-[2,6-dimethyl-4-(5-trifluoromethyl-pyridin-2-yl)-piperazine-1-sulfonyl]-3-methyl-phenyl}-acetic acid] | > 100 µM | < 5 µM | 5 to 100 µM |
| Cc1cc(S(=O)(=O)N2[C@H](C)CN(c3ccc(OC(F)(F)F)cc3)C[C@@H]2C)cc(CC(=O)O)c1Br [Example 198, {2-Bromo-5-[2,6-dimethyl-4-(4-trifluoromethoxy-phenyl)-piperazine-1-sulfonyl]-3-methyl-phenyl}-acetic acid] | 5 to 100 µM | < 5 µM | 5 to 100 µM |
| O=C(O)Cc1cc(Br)cc(S(=O)(=O)N2CCN(c3ccc(C(F)(F)F)cn3)CC2)c1 [Example 199, {3-Bromo-5-[4-(5-trifluoromethyl-pyridin-2-yl)-piperazine-1-sulfonyl]-phenyl}acetic acid] | 5 to 100 µM | < 5 µM | 5 to 100 µM |
| C[C@@H]1CN(c2ccc(OC(F)(F)F)cc2)C[C@H](C)N1S(=O)(=O)c1cc(Br)cc(CC(=O)O)c1 [Example 200, {3-Bromo-5-[2,6-dimethyl-4-(4-trifluoromethoxy-phenyl)-piperazine-1-sulfonyl]-phenyl}-acetic acid] | 5 to 100 µM | < 5 µM | 5 to 100 µM |
| O=C(O)Cc1cc(Br)cc(S(=O)(=O)N2CCN(c3ccc(OC(F)(F)F)cc3)CC2)c1 [Example 201, {3-Bromo-5-[4-(4-trifluoromethoxy-phenyl)-piperazine-1-sulfonyl]-phenyl}-acetic acid] | 5 to 100 µM | < 5 µM | 5 to 100 µM |
| O=C(O)Cc1cc(C(F)(F)F)cc(S(=O)(=O)N2CCN(c3ccc(C(F)(F)F)cc3)CC2)c1 [Example 202, {3-Trifluoromethyl-5-[4-(4-trifluoromethyl-phenyl)-piperazine-1-sulfonyl]-phenyl}-acetic acid] | 5 to 100 µM | < 5 µM | 5 to 100 µM |
| O=C(O)Cc1cc(C(F)(F)F)cc(S(=O)(=O)N2CCN(c3ccc(C(F)(F)F)cn3)CC2)c1 [Example 203, {3-Trifluoromethyl-5-[4-(5-trifluoromethyl-pyridin-2-yl)-piperazine-1-sulfonyl]-phenyl}-acetic acid] | 5 to 100 µM | < 5 µM | 5 to 100 µM |
| C[C@@H]1CN(c2ccc(C(F)(F)F)cn2)C[C@H](C)N1S(=O)(=O)c1cc(CC(=O)O)cc(C(F)(F)F)c1 [Example 204, {3-[2,6-Dimethyl-4-(5-trifluoromethyl-pyridin-2-yl)-piperazine-1-sulfonyl]-5-trifluoromethyl-phenyl}-acetic acid] | > 100 µM | < 5 µM | > 100 µM |
| Cc1ccc(S(=O)(=O)N2CCN(c3ccc(C(F)(F)F)cn3)C(C(F)(F)F)C2)cc1CC(=O)O (stereo not drawn) [Example 205, {2-Methyl-5-[3-trifluoromethyl-4-(5-trifluoromethyl-pyridin-2-yl)-piperazine-1-sulfonyl]-phenyl}-acetic acid] | 5 to 100 µM | < 5 µM | 5 to 100 µM |
